Experimental data taken from PMC11465619 (ACS Omega, 2024).

How the values were obtained:
[1] = target: T1, electric eel acetylcholinesterase (AChE, Type–VI-S, EC 3.1.1.7) (Electrophorus electricus, UniProt O42275); test: biochemical; settings: for IC50: mean ± SEM of three parallel measurements
T1 construct: purchased Type–VI-S
Protocol: (§1) The electric eel acetylcholinesterase (AChE, Type–VI-S, EC 3.1.1.7, 425.84 U/mg) and horse reddish butyrylcholinesterase (BChE, EC 3.1.1.8, 11.4 U/mg) were used to determine the anticholinesterase activity. […] After incubation for 15 min at 25 °C, 20 μL 0.5 mM DTNB (5,50-dithiobis(2-nitrobenzoic acid)) and 20 μL acetylthiocholine iodide (0.71 mM) or butyryl-thiocholine chloride (0.2 mM) were added. Then, the absorbance was measured at 412 nm.
(§2) Lineweaver–Burk plots were drawn from the data obtained as a result of the experimental study.[24]

[2] = target: horse reddish butyrylcholinesterase (BChE, EC 3.1.1.8) (Equus caballus, UniProt P81908); test: biochemical; settings: for IC50: mean ± SEM of three parallel measurements
Sequence of horse reddish butyrylcholinesterase (BChE, EC 3.1.1.8) (P81908 whole entry): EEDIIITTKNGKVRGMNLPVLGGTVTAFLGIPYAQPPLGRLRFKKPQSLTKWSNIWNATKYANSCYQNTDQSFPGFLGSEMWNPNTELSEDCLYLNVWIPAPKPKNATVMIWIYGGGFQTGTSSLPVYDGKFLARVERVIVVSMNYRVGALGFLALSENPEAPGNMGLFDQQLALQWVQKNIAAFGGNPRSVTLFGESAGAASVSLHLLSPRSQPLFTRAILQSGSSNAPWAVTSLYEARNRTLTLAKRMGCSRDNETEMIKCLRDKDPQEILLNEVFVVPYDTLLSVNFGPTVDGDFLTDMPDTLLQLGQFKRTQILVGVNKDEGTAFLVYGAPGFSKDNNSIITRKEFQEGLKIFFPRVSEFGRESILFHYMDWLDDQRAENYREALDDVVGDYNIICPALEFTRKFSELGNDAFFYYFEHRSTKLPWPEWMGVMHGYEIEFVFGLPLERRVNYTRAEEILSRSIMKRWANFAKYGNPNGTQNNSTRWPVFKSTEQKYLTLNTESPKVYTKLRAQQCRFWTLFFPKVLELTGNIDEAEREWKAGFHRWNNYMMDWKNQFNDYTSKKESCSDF
Protocol: as §1, §2

T1 sequence (O42275 24-633): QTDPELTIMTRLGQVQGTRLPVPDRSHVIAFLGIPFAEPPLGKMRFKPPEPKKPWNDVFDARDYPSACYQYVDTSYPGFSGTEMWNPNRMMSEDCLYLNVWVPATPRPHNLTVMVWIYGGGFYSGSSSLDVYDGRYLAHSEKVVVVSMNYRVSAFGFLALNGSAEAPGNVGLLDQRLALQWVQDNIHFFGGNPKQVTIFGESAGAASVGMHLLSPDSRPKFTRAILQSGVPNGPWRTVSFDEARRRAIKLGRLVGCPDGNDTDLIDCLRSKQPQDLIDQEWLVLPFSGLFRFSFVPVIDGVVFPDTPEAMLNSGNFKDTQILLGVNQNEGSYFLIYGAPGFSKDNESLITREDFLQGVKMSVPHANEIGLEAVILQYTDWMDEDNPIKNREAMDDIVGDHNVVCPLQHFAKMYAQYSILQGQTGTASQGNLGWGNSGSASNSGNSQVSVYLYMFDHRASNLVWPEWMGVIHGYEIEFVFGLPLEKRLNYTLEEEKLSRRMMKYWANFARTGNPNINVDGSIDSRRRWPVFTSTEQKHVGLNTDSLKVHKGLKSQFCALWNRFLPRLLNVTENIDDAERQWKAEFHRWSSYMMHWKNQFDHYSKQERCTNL

With `O=S(=O)(N/N=C/c1ccccc1O)c1ccc(F)cc1` [Compound 1, (E)-4-Fluoro-N′-(2-hydroxybenzylidene)benzenesulfonohydrazide] the IC50 [1] was 117.5 ± 0.38 µM and the IC50 [2] was 124.4 ± 0.28 µM.
Work on `O=S(=O)(N/N=C/c1ccccc1O)c1cccc(OC(F)(F)F)c1` [Compound 6, (E)-N′-(2-Hydroxybenzylidene)-3-(trifluoromethoxy)benzenesulfonohydrazide] yielded an IC50 [1] of 80.3 ± 0.91 µM and an IC50 [2] of 86.4 ± 0.14 µM.
Work on `O=S(=O)(N/N=C/c1ccccc1O)c1ccccc1C(F)(F)F` [Compound 2, (E)-N′-(2-Hydroxybenzylidene)-2-(trifluoromethyl)benzenesulfonohydrazide] yielded an IC50 [1] of 91.77 ± 0.33 µM and an IC50 [2] of 100.1 ± 0.12 µM.
`O=S(=O)(N/N=C/c1ccccc1O)c1ccc(OC(F)(F)F)cc1` [Compound 7, (E)-N′-(2-Hydroxybenzylidene)-4-(trifluoromethoxy)benzenesulfonohydrazide] was tested, and the “type of inhibition of AChE (Lineweaver–Burk plots)” value [1] was “competitively”, the “AChE inhibitory activity relative to the standard galantamine” value ([1]; compared with galantamine) was “seven times lower” and the Ki ([1]; competitive inhibition, read-out: inhibition constant for AChE (Lineweaver–Burk plots)) was 28.2 ± 2.51 µM. For the same compound, the IC50 [1] was 29.1 ± 0.94 µM, the “type of inhibition of BChE (Lineweaver–Burk plots)” value [2] was “competitively” and the Ki ([2]; competitive inhibition, read-out: inhibition constant for BChE (Lineweaver–Burk plots)) was 41.7 ± 3.18 µM. It also gave an IC50 [2] of 40.3 ± 0.66 µM.
`O=S(=O)(N/N=C/c1ccccc1O)c1cccc(C(F)(F)F)c1` [Compound 3, (E)-N′-(2-Hydroxybenzylidene)-3-(trifluoromethyl)benzenesulfonohydrazide] showed an IC50 [1] of 104.2 ± 0.56 µM and an IC50 [2] of 119.8 ± 0.17 µM.
`O=S(=O)(N/N=C/c1ccccc1O)c1ccccc1OC(F)(F)F` [Compound 5, (E)-N′-(2-Hydroxybenzylidene)-2-(trifluoromethoxy)benzenesulfonohydrazide] was tested, and the IC50 [1] was 53.1 ± 0.58 µM and the IC50 [2] was 69 ± 1.06 µM.
`O=S(=O)(N/N=C/c1ccccc1O)c1ccc(C(F)(F)F)cc1` [Compound 4, (E)-N′-(2-Hydroxybenzylidene)-4-(trifluoromethyl)benzenesulfonohydrazide] was tested, and the IC50 [1] was 68.67 ± 0.43 µM and the IC50 [2] was 75.34 ± 0.18 µM.
